These results are taken from patent US20210317141A1, “OXOPYRIDO[1,2-A]PYRIMIDINE COMPOUNDS FOR THE TREATMENT AND PROPHYLAXIS OF BACTERIAL INFECTION” (Hoffmann-La Roche Inc., priority 2018, published 2021).

The subject of one data set is E. coli (ATCC 25922). Nature of the data set: Minimal Inhibitory Concentration (MIC) assay. The format is cell-based. As to conditions: Escherichia coli, read-out: MIC (μg/mL) E. coli ATCC 25922. Here is the method: The in vitro potency of compounds to inhibit E. coli (ATCC 25922) growth was assessed by MIC (Minimal Inhibitory Concentration) assay. Samples were prepared from 10 mM DMSO stock solutions. After serial 2-fold dilution in DMSO in a master plate (Greiner, Cat No: 651201), 180 μL sterile distilled water was added to 20 μL each aliquot of the samples. Then […], diluted compounds were transferred into a new assay plate (Costar, 3599).
The growth medium […] Mueller Hinton Broth (CAMHB) was prepared by adding the 20 mg per liter CaCl2) and 20 mg per liter MgCl2 into the MHB medium (Jianglai Company, sterilized).
Vials of each of the test microorganisms were maintained frozen in the vapor phase of a liquid nitrogen freezer. Took out the bacteria E. coli ATCC 25922 (KWIKSTIK, 0335K) from liquid nitrogen freezer, thawed it in room temperature, and diluted the bacterial in the CAMHB medium to achieve a final inoculum of 5×10^5 CFU/mL. 90 μL CAMHB with bacteria was dispensed to the assay plate and pipetted 5 times.
Then the assay plates were incubated for 20 hours at 35° C. in ambient air. Following incubation, the MIC (μg/mL), the lowest concentration of drug that inhibits visible growth of the microorganism was read and recorded throw the microscope.

A further data set deals with E. coli (BW25113). Nature of the data set: 50% growth inhibitory concentration (IC50) determination assay, E. coli. The format is cell-based. The following applies: Escherichia coli, growth inhibition, Iso-Sensitest broth, OD 600 nm over 16 h, 35±2° C., read-out: IC50 (μM) E. coli K12 BW25113. Here is the method:
(§1) The in vitro antimicrobial activity of the compounds against E. coli (BW25113, obtained from Coli Genetic Stock Center, #7636) and K. pneumoniae (ATCC10031) was determined according to the following procedure:
(§2) The assay used a 10-points Iso-Sensitest broth medium to measure quantitatively the in vitro activity of the compounds against E. coli BW25113 and K. pneumoniae ATCC 10031.
(§3) Stock compounds in DMSO were serially two-fold diluted (range from 50 to 0.097 μM final concentration) in 384 wells microtiter plates and inoculated with 49 μL the bacterial suspension in Iso-Sensitest broth medium to have a final cell concentration of ˜5×10^5 CFU/mL in a final volume/well of 50 μL/well. Microtiter plates were incubated at 35±2° C.
(§4) Bacterial cell growth was determined with the measurement of optical density at k=600 nm each 20 minutes over a time course of 16 h.
(§5) Growth inhibition was calculated during the logarithmic growth of the bacterial cells with determination of the concentration inhibiting 50% (IC50) of the growth.

Data set [1] relates to K. pneumoniae (ATCC10031). Nature of the data set: 50% growth inhibitory concentration (IC50) determination assay, K. pneumoniae. In kind it is cell-based. The following applies: Klebsiella pneumoniae, growth inhibition, Iso-Sensitest broth, OD 600 nm over 16 h, * = detection limit. How it is done:
as §1, §2, §3, §4, §5

A short description of data set [2]: Lyophilisation solubility assay (LYSA). The format is physicochemical. The following applies: aqueous buffer, thermodynamic from solid; 0.05 M phosphate buffer, pH 6.5; * = detection limit. How it is done:
The solubility of compounds of present invention was assessed by LYSA assay. Samples were prepared in duplicate from 10 mM DMSO stock solutions (20 μL) diluted in 30 μL pure DMSO. After evaporation of DMSO with a centrifugal vacuum evaporator, the residue was dissolved in 0.05 M phosphate buffer (150 μL, pH 6.5), stirred for one hour and shook for two hours. After one night, the solution was filtered using a microtiter filter plate. Then the filtrate and its 1/10 dilution were analyzed by HPLC-UV. In addition, a four-point calibration curve was prepared from the 10 mM stock solutions and used for the solubility determination of the compounds.

[3] abbreviates: ATCC25922, CAMHB, 20 hours at 35° C.

The structures appear in SMILES notation. ≈ marks a conversion by molar mass, not a printed value. Read-outs that look alike come from different tables or passages of the source. Where only a bound is given, the exact number is not on record here.

By IC50 is commonly meant the concentration at which inhibition is half-maximal. `CNc1cc(F)c(F)c2c1[nH]c1ncc(-c3cc(C)c4ncc(C(=O)O)c(=O)n4c3)c(N(C)C)c12` [Example 1.02, 7-[4-(Dimethylamino)-5,6-difluoro-8-(methylamino)-9H-pyrido[2,3-b]indol-3-yl]-9-methyl-4-oxo-pyrido[1,2-a]pyrimidine-3-carboxylic acid]: in the data set with E. coli (ATCC 25922) (setting [3]), the MIC was 0.598 µg/mL (≈ 1.25 µM). Besides, the results for the concentration for half-maximal inhibition (IC50) (with E. coli (BW25113); in data set [1]) were 0.262 µM and at most 0.098 µM, respectively.
The matching figures for `CNc1cc(F)c(F)c2c1[nH]c1ncc(-c3cc(N4CCOCC4)c4ncc(C(=O)O)c(=O)n4c3)c(N(C)C)c12` [Example 1.06, 7-[4-(Dimethylamino)-5,6-difluoro-8-(methylamino)-9H-pyrido[2,3-b]indol-3-yl]-9-morpholino-4-oxo-pyrido[1,2-a]pyrimidine-3-carboxylic acid]: 0.122 µg/mL (≈ 0.222 µM), 0.828 µM and 0.187 µM.
The corresponding values for `CNc1cc(F)c(F)c2c1[nH]c1ncc(-c3cc(N4CCOCC4)c4ncc(C(=O)O)c(=O)n4c3)c(N3CCCC3)c12` [Example 1.07, 7-[5,6-Difluoro-8-(methylamino)-4-pyrrolidin-1-yl-9H-pyrido[2,3-b]indol-3-yl]-9-morpholino-4-oxo-pyrido[1,2-a]pyrimidine-3-carboxylic acid] are 0.0911 µg/mL (≈ 0.158 µM), 0.885 µM and 0.319 µM.
The term thermodynamic solubility denotes the concentration in solution at equilibrium with solid. Take `CNc1cc(F)c(F)c2c1[nH]c1ncc(-c3ccc4ncc(C(=O)O)c(=O)n4c3)c(N3CCC4CN(C)CC43)c12` (stereo not drawn) [Example 1.08, 7-[5,6-Difluoro-4-(5-methyl-2,3,3a,4,6,6a-hexahydropyrrolo[2,3-c]pyrrol-1-yl)-8-(methylamino)-9H-pyrido[2,3-b]indol-3-yl]-4-oxo-pyrido[1,2-a]pyrimidine-3-carboxylic acid]: the thermodynamic solubility in data set [2] came to 60 µg/mL (≈ 110 µM).
As to `CNc1cc(F)c(F)c2c1[nH]c1ncc(-c3cc(CN(C)C)c4ncc(C(=O)O)c(=O)n4c3)c(N3CCCC3)c12` [Example 1.15, 7-(5,6-Difluoro-8-(methylamino)-4-(pyrrolidin-1-yl)-9H-pyrido[2,3-b]indol-3-yl)-9-((dimethylamino)methyl)-4-oxo-4H-pyrido[1,2-a]pyrimidine-3-carboxylic acid], the MIC with E. coli (ATCC 25922) (setting [3]) turned out to be 0.152 µg/mL (≈ 0.278 µM). Further, the thermodynamic solubility in data set [2] was 19 µg/mL (≈ 34.7 µM). Further, the IC50 with E. coli (BW25113) is 0.663 µM; in data set [1], at most 0.098 µM.
`CNc1cc(Cl)cc2c1[nH]c1ncc(-c3ccc4ncc(C(=O)O)c(=O)n4c3)c(N(C)C)c12` [Example 1.16, 7-(6-Chloro-4-(dimethylamino)-8-(methylamino)-9H-pyrido[2,3-b]indol-3-yl)-4-oxo-4H-pyrido[1,2-a]pyrimidine-3-carboxylic acid]: the MIC in the data set on E. coli (ATCC 25922) (setting [3]) is 0.169 µg/mL (≈ 0.365 µM). The values for the IC50 (in the data set with E. coli (BW25113); in data set [1]) were 1.97 µM and 0.183 µM, respectively.
Regarding `CNc1c(F)cc(F)c2c1[nH]c1ncc(-c3ccc4ncc(C(=O)O)c(=O)n4c3)c(N(C)C)c12` [Example 1.17, 7-(4-(Dimethylamino)-5,7-difluoro-8-(methylamino)-9H-pyrido[2,3-b]indol-3-yl)-4-oxo-4H-pyrido[1,2-a]pyrimidine-3-carboxylic acid], in the data set with E. coli (ATCC 25922) (setting [3]), the MIC is 0.0847 µg/mL (≈ 0.182 µM). Further, the solubility (thermodynamic) in data set [2] turned out to be 60 µg/mL (≈ 129 µM). Besides, the IC50 in the data set with E. coli (BW25113) was 0.497 µM; in data set [1], at most 0.098 µM.
Take `CNc1cc(F)c(F)c2c1[nH]c1ncc(-c3ccc4ncc(C(=O)O)c(=O)n4c3)c(N3CCC(CN(C)CC(F)F)C3)c12` (stereo not drawn) [Example 1.20, 7-(4-(3-(((2,2-Difluoroethyl)(methyl)amino)methyl)pyrrolidin-1-yl)-5,6-difluoro-8-(methylamino)-9H-pyrido [2,3-b]indol-3-yl)-4-oxo-4H-pyrido[1,2-a]pyrimidine-3-carboxylic acid]: in the data set with E. coli (ATCC 25922) (setting [3]), the MIC stood at 0.0707 µg/mL (≈ 0.118 µM). Further, the thermodynamic solubility in data set [2] amounted to 165 µg/mL (≈ 276 µM).
For the compound `CNc1cc(F)c(F)c2c1[nH]c1ncc(-c3ccc4ncc(C(=O)O)c(=O)n4c3)c(N3CC(CN(C)C)C(F)(F)C3)c12` (stereo not drawn) [Example 1.22, 7-[4-[4-[(dimethylamino)methyl]-3,3-difluoro-pyrrolidin-1-yl]-5,6-difluoro-8-(methylamino)-9H-pyrido[2,3-b]indol-3-yl]-4-oxo-pyrido[1,2-a]pyrimidine-3-carboxylic acid], the thermodynamic solubility in data set [2] worked out at 65 µg/mL (≈ 111 µM).
As to `CNc1cc(F)c(Cl)c2c1[nH]c1ncc(-c3ccc4ncc(C(=O)O)c(=O)n4c3)c(N(C)C)c12` [Example 1.23, 7-(5-Chloro-4-(dimethylamino)-6-fluoro-8-(methylamino)-9H-pyrido[2,3-b]indol-3-yl)-4-oxo-4H-pyrido[1,2-a]pyrimidine-3-carboxylic acid], in the data set with E. coli (ATCC 25922) (setting [3]), the MIC is 0.0871 µg/mL (≈ 0.181 µM). For the same compound, the values for the IC50 (with E. coli (BW25113); in data set [1]) were 0.458 µM and at most 0.098 µM, respectively.
Take `CNc1cc(F)cc2c1[nH]c1ncc(-c3ccc4ncc(C(=O)O)c(=O)n4c3)c(N3CCC(c4ccccc4)C3)c12` (stereo not drawn) [Example 1.25, 7-(6-Fluoro-8-(methylamino)-4-(3-phenylpyrrolidin-1-yl)-9H-pyrido[2,3-b]indol-3-yl)-4-oxo-4H-pyrido[1,2-a]pyrimidine-3-carboxylic acid]: the MIC with E. coli (ATCC 25922) (setting [3]) came to 0.697 µg/mL (≈ 1.27 µM).
As for `CNc1c(F)c(F)cc2c1[nH]c1ncc(-c3ccc4ncc(C(=O)O)c(=O)n4c3)c(N3CC[C@@H](N(C)C)C3)c12` [Example 1.27, (R)-7-(4-(3-(Dimethylamino)pyrrolidin-1-yl)-6,7-difluoro-8-(methylamino)-9H-pyrido[2,3-b]indol-3-yl)-4-oxo-4H-pyrido[1,2-a]pyrimidine-3-carboxylic acid], the MIC with E. coli (ATCC 25922) (setting [3]) worked out at 0.759 µg/mL (≈ 1.42 µM). The compound also came in with a thermodynamic solubility in data set [2] of 31 µg/mL (≈ 58.1 µM).
Take `CNc1cc(F)c(F)c2c1[nH]c1ncc(-c3ccc4ncc(C(=O)O)c(=O)n4c3)c(N3CCN4CCOCC4C3)c12` (stereo not drawn) [Example 1.28, 7-(5,6-Difluoro-4-(hexahydropyrazino[2,1-c][1,4]oxazin-8(1H)-yl)-8-(methylamino)-9H-pyrido[2,3-b]indol-3-yl)-4-oxo-4H-pyrido[1,2-a]pyrimidine-3-carboxylic acid compound with formic acid]: in the data set with E. coli (ATCC 25922) (ATCC25922, 20 h), the MIC turned out to be 0.356 µg/mL (≈ 0.634 µM).
`CNc1cc(F)c(F)c2c1[nH]c1ncc(-c3cc(N4CCOCC4)c4ncc(C(=O)O)c(=O)n4c3)c(N(C)C)c12` [Example 1.32, 7-[4-(Dimethylamino)-5,6-difluoro-8-(methylamino)-9H-pyrido[2,3-b]indol-3-yl]-9-morpholino-4-oxo-pyrido[1,2-a]pyrimidine-3-carboxylic acid] registered a thermodynamic solubility in data set [2] of 43 µg/mL (≈ 78.2 µM).
As for `CNc1cc(F)c(F)c2c1[nH]c1ncc(-c3cc(C)c4ncc(C(=O)O)c(=O)n4c3)c(N3CCC4CN(C)CC43)c12` (stereo not drawn) [Example 1.33, 7-[5,6-Difluoro-4-(5-methyl-2,3,3a,4,6,6a-hexahydropyrrolo[2,3-c]pyrrol-1-yl)-8-(methylamino)-9H-pyrido[2,3-b]indol-3-yl]-9-methyl-4-oxo-pyrido[1,2-a]pyrimidine-3-carboxylic acid], in the data set with E. coli (ATCC 25922) (setting [3]), the MIC was found to be 0.164 µg/mL (≈ 0.293 µM). The compound further showed a solubility (thermodynamic) in data set [2] of 275 µg/mL (≈ 491 µM).
`CNc1cc(F)c(F)c2c1[nH]c1ncc(-c3cc(CN4CCC5CN(C)CC54)c4ncc(C(=O)O)c(=O)n4c3)c(N(C)C)c12` (stereo not drawn) [Example 2.06, 7-[4-(Dimethylamino)-5,6-difluoro-8-(methylamino)-9H-pyrido[2,3-b]indol-3-yl]-9-[(5-methyl-2,3,3a,4,6,6a-hexahydropyrrolo[2,3-c]pyrrol-1-yl)methyl]-4-oxo-pyrido[1,2-a]pyrimidine-3-carboxylic acid]: the MIC in the data set on E. coli (ATCC 25922) (setting [3]) was 0.84 µg/mL (≈ 1.39 µM). In data set [2], the solubility (thermodynamic) is over 840 µg/mL.
In the case of `CNc1cc(F)c(F)c2c1[nH]c1ncc(-c3cc(C)c4ncc(C(=O)O)c(=O)n4c3)c(C3CC3)c12` [Example 3.01, 7-[4-Cyclopropyl-5,6-difluoro-8-(methylamino)-9H-pyrido[2,3-b]indol-3-yl]-9-methyl-4-oxo-pyrido[1,2-a]pyrimidine-3-carboxylic Acid], the MIC in the data set with E. coli (ATCC 25922) (setting [3]) amounted to 0.594 µg/mL (≈ 1.25 µM). Also, the IC50 turned out to be 0.808 µM with E. coli (BW25113) and 0.11 µM in data set [1].
